Assay results reported in patent US11629154B2, “Tetrahydropyranooxazine derivatives having selective BACE1 inhibitory activity” (SHIONOGI & CO., LTD., priority 2018, dated 2023).

Tests used:
[1] = target: recombinant BACE1 protein (Homo sapiens (Human), UniProt P56817); test: BACE1 biochemical FRET based assay; settings: for Selectivity: BACE1 versus BACE2; for IC50: FRET, pH 5.0
Excerpt: (1) BACE1 Biochemical FRET Based Assay
(§1) This assay is a Fluorescence Resonance Energy Transfer Assay (FRET) based assay. The substrate for this assay is an APP derived 13 amino acids peptide that contains the ‘Swedish’ Lys-Met/Asn-Leu mutation of the amyloid precursor protein (APP) beta-site secretase cleavage site. This substrate also contains two fluorophores: (7-methoxycoumarin-4-yl) acetic acid (Mca) is a fluorescent donor with excitation wavelength at 320 nm and emission at 405 nm and 2,4-dinitrophenol (Dnp) is a proprietary quencher acceptor. […] Upon cleavage by BACE1, the fluorophore Mca is separated from the quenching group Dnp, restoring the full fluorescence yield of the donor. The increase in fluorescence is linearly related to the rate of proteolysis.
Briefly in a 384-well format recombinant BACE1 protein in a final concentration of 0.04 μg/mL was incubated for 450 minutes at room temperature with […] substrate in incubation buffer (final concentrations: 33.3 mM Citrate buffer pH 5.0, 0.033% PEG, 3% DMSO) in the absence or presence of compound. Next the amount of proteolysis was directly measured by fluorescence measurement at T=0′-120′ and T=450′ (excitation at 320 nm and emission at 405 nm). Results were expressed in RFU (Relative Fluorescence Units), as difference between T450 and Tx (Tx is chosen depending on the reaction speed between 0 and 120 minutes).
(§2) A best-fit curve was fitted by a minimum sum of squares method to the plot of % Controlmin versus compound concentration. From this an IC50 value (inhibitory concentration causing 50% inhibition of activity) can be obtained.
(§3) LC=Median of the low control values
(§4) =Low control: Reaction without enzyme
(§5) HC=Median of the High control values
=High Control: Reaction with enzyme % Effect=100−[(sample−LC)/(HC−LC)*100] % Control=(sample/HC)*100 % Controlmin=(sample−LC)/(HC−LC)*100

[2] = target: recombinant BACE2 protein (Homo sapiens (Human), UniProt Q9Y5Z0); test: BACE2 biochemical FRET based assay; settings: pH 5.0
Sequence of recombinant BACE2 protein (Q9Y5Z0 63-518): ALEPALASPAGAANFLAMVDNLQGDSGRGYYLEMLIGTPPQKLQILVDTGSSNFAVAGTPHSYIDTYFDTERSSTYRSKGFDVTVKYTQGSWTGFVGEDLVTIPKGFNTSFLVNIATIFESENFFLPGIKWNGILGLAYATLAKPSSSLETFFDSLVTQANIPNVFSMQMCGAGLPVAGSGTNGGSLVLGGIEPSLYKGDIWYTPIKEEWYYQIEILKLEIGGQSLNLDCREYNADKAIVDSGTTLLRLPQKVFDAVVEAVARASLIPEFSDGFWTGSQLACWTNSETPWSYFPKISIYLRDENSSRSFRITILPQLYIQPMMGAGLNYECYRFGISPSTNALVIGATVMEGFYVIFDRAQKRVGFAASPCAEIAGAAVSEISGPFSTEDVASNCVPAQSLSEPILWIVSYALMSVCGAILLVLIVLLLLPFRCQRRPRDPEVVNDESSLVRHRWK
Excerpt: (2) BACE2 Biochemical FRET Based Assay
as §1, with “assay” for “assay is an APP derived 13 amino acids peptide that”, “beta-secretase” for “beta-site secretase”, “the beta-secretase,” for “BACE1,”
Briefly in a 384-well format recombinant BACE2 protein in a final concentration of 0.4 μg/mL was incubated for 450 minutes at room temperature with 10 μM substrate in incubation buffer (final concentrations: 33.3 mM Citrate buffer pH 5.0, 0.033% PEG, 2% DMSO) in the absence or presence of compound. Next the amount of proteolysis was directly measured by fluorescence measurement at T=0 and T=450 (excitation at 320 nm and emission at 405 nm). Results were expressed in RFU (Relative Fluorescence Units), as difference between T450 and TO.
as §2, §3, §4, §5

[3] = system: Abeta 1-42 in cerebrospinal fluid (CSF); test: Pharmacology in the beagle dog: beta-amyloid profile in CSF; type: in vivo
Procedure: Test compounds were tested to evaluate the effect on the beta-amyloid profile in cerebrospinal fluid (CSF) of dogs after a single dose, in combination with pharmacokinetic (PK) follow up and limited safety evaluation.
In the case of compounds shown below, two or 4 beagle dogs (1 or 2 male, 1 or 2 female) were dosed with vehicle (1 mL/kg of an aqueous solution of 20% cyclodextrin) and 4 beagle dogs (2 males and 2 females) per dose group were dosed with test compound at the doses indicated in Table 20 in an aqueous 20% cyclodextrin solution with a concentration in mg/mL identical to the dose given in mg/kg) on an empty stomach.
CSF was taken in conscious animals directly from the lateral ventricle via a cannula which was screwed in the skull and covered with subcutaneous tissue and skin, before and at 4, 8, 25 and 49 hours after dosing. Eight hours after dosing the animals got access to their regular meal for 30 minutes. Blood was taken for PK follow up (0.5, 1, 2, 4, 8, 25 and 49 hours) and serum samples for biochemistry were taken before and at 8 and 25h after dosing. The CSF samples were used for measurement of Abeta 1-37, Abeta 1-38, Abeta 1-40 and Abeta 1-42.

Sequence of recombinant BACE1 protein (P56817 46-501): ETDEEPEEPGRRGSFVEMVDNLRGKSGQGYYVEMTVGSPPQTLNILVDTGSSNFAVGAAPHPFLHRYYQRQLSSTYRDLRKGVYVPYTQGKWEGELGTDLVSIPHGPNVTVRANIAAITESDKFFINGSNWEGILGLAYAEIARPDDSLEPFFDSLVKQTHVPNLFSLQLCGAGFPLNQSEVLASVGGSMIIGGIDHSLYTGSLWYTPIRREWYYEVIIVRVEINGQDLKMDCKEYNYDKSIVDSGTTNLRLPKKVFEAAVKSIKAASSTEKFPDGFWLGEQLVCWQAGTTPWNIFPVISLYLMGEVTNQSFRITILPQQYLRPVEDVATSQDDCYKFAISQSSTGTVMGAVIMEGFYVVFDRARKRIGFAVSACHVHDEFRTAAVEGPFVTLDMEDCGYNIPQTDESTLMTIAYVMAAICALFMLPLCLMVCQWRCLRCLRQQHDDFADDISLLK

SMILES | Selectivity [1] | IC50 [1] [nM] | IC50 [2] [nM] | % Decrease in Abeta 1-42 at 8 h post dosing compared to own baseline ([3]; single dose 0.31 mg/kg) [%] | % Decrease in Abeta 1-42 at 8 h post dosing compared to own baseline ([3]; single dose 0.63 mg/kg) [%] | % Decrease in Abeta 1-42 at 24 h^(a) or 25 h^(b) post dosing compared to own baseline ([3]; single dose 0.31 mg/kg) [%] | % Decrease in Abeta 1-42 at 49 h post dosing compared to own baseline ([3]; single dose 0.31 mg/kg) [%] | % Decrease in Abeta 1-42 at 24 h^(a) or 25 h^(b) post dosing compared to own baseline ([3]; single dose 0.63 mg/kg) [%] | % Decrease in Abeta 1-42 at 8 h post dosing compared to own baseline ([3]; single dose 2.5 mg/kg) [%] | % Decrease in Abeta 1-42 at 24 h^(a) or 25 h^(b) post dosing compared to own baseline ([3]; single dose 2.5 mg/kg) [%] | % Decrease in Abeta 1-42 at 49 h post dosing compared to own baseline ([3]; single dose 2.5 mg/kg) [%] | % Decrease in Abeta 1-42 at 49 h post dosing compared to own baseline ([3]; single dose 0.63 mg/kg) [%] | % Decrease in Abeta 1-42 at 8 h post dosing compared to own baseline ([3]; single dose 1.25 mg/kg) [%] | % Decrease in Abeta 1-42 at 24 h^(a) or 25 h^(b) post dosing compared to own baseline ([3]; single dose 1.25 mg/kg) [%] | % Decrease in Abeta 1-42 at 49 h post dosing compared to own baseline ([3]; single dose 1.25 mg/kg) [%] | % Decrease in Abeta 1-42 at 8 h post dosing compared to own baseline ([3]; single dose 3.75 mg/kg) [%] | % Decrease in Abeta 1-42 at 24 h^(a) or 25 h^(b) post dosing compared to own baseline ([3]; single dose 3.75 mg/kg) [%] | % Decrease in Abeta 1-42 at 49 h post dosing compared to own baseline ([3]; single dose 3.75 mg/kg) [%]
NC1=N[C@](CF)(c2cc(NC(=O)c3cnc(-n4cncn4)cn3)ccc2F)[C@H]2COCC[C@H]2O1 [Compound I-047] | 69.2 | 17 | 1180 |  |  |  |  |  |  |  |  |  |  |  |  |  |  | 
NC1=N[C@](CF)(c2cc(NC(=O)c3cnc(OC(F)F)cn3)ccc2F)[C@H]2COCC[C@H]2O1 [Compound I-076] | 63.1 | 2.8 | 178 | −68 | −65 |  |  |  |  |  |  |  |  |  |  |  |  | 
COc1cnc(C(=O)Nc2ccc(F)c([C@@]3(CF)N=C(N)O[C@@H]4CCOC[C@@H]43)c2)cn1 [Compound I-067] | 30.2 | 8.9 | 269 | −36 | −64 |  |  |  |  |  |  |  |  |  |  |  |  | 
C[C@@H]1C[C@H]2OC(N)=N[C@](CF)(c3cc(NC(=O)c4cnc(OCF)cn4)ccc3F)[C@H]2CO1 [Compound I-008] | 43.7 | 14.8 | 646 | −57 | −58 | −28 | −25 | −48 | −81 | −76 | −49 |  |  |  |  |  |  | 
NC1=N[C@](CF)(c2cc(NC(=O)c3ccc(C(F)(F)F)cn3)ccc2F)[C@H]2COCC[C@H]2O1 [Compound I-105] | 17.8 | 17 | 302 |  |  |  |  |  |  |  |  |  |  |  |  |  |  | 
C[C@@H]1C[C@H]2OC(N)=N[C@](CF)(c3cc(NC(=O)c4cnc(OCF)cn4)ccc3Cl)[C@H]2CO1 [Compound I-065] | 35.5 | 9.5 | 339 |  | −49 |  |  | −52 |  |  |  | −20 | −59 | −56 | −34 |  |  | 
NC1=N[C@](CF)(c2cc(NC(=O)c3cnc(OCF)cn3)ccc2F)[C@H]2COCC[C@H]2O1 [Compound I-007] | 40.7 | 7.4 | 302 | −61 | −69 | −23 |  | −48 |  |  |  |  |  |  |  | −64 | −82 | −40
